# Laboratory results from paper PMC4874602 (ACS Infectious Diseases, 2016).
# Where two headings read alike, the source gives them in different places.
# Experiments:
# THP-1 cells = conditions: 30 min exposure, 1 mM PZA, 0.4 mM POA
# [1] = system: Mycobacterium tuberculosis; conditions: cited from earlier work
# [2] = C3HeB/FeJ; for AUC8h: single 150 mg/kg oral dose of PZA
# M. tuberculosis Erdman [3] = type: in vivo, Mycobacterium tuberculosis; conditions: BALB/c, P < 0.01
# in vivo [4] = conditions: C3HeB/FeJ, mouse, po, 150 mg/kg; for half-life: t1/2, C3HeB/FeJ
# in vivo [5] = conditions: BALB/c and C3HeB/FeJ, mouse, 150 mg/kg
# M. tuberculosis Erdman [6] = type: in vivo, Mycobacterium tuberculosis; conditions: C3HeB/FeJ, P < 0.01
# in vivo [7] = conditions: BALB/c, mouse, po, 150 mg/kg; for half-life: t1/2, BALB/c
# [8] = BALB/c; for AUC8h: single 150 mg/kg oral dose of PZA; for Cmax / AUC168h / Tmax / t1/2: single 25 mg/kg oral dose of BDQ
# [9] = lung; single dose of 25 mg/kg BDQ; BALB/c and C3HeB/FeJ
# [10] = cited from earlier work
# [11] = PZA 150 mg/kg, first 3 weeks of treatment
# [12] = PZA 300 mg/kg vs 150 mg/kg, first 3 weeks
# [13] = lesion (caseous necrotic granuloma, type I), single 150 mg/kg oral dose of PZA
# [14] = plasma, single 150 mg/kg oral dose of PZA
# [15] = uninvolved lung, single 150 mg/kg oral dose of PZA
# [16] = whole lung, single 150 mg/kg oral dose of PZA
# [17] = lesion (type I), single 150 mg/kg oral dose of PZA
# [18] = plasma, single 150 mg/kg oral dose of PZA, 2.5–8 h terminal
# [19] = lesion (cellular non-necrotizing, type III), single 150 mg/kg oral dose of PZA
# [20] = lesion (type III), single 150 mg/kg oral dose of PZA
# [21] = AUCUL/AUCplasma, uninvolved lung, single 150 mg/kg oral dose of PZA
# [22] = AUCWL/AUCplasma, whole lung, single 150 mg/kg oral dose of PZA
# [23] = lesion (type I), single 25 mg/kg oral dose of BDQ
# [24] = plasma, single 25 mg/kg oral dose of BDQ
# [25] = uninvolved lung, single 25 mg/kg oral dose of BDQ
# [26] = whole lung, single 25 mg/kg oral dose of BDQ
structure (smiles),measurement,setting,value
"NC(=O)c1cnccn1 [PZA, pyrazinamide]",accumulation within THP-1 cells,THP-1 cells,accumulated to a very low degree
same,MIC,"[1]; pH 7.0, standard laboratory culture conditions",> 1000 mg/mL
same,AUC8h,[2]; lesion (type I),351.8 µg·h/g
same,AUC8h,[2]; uninvolved lung,237.9 µg·h/g
same,AUC8h,[2]; whole lung,306.3 µg·h/g
same,change in pulmonary CFU,M. tuberculosis Erdman [3]; [11],significant decrease in pulmonary CFU
same,change in pulmonary CFU,M. tuberculosis Erdman [3]; [12],larger decrease in CFU
same,AUC(0-t),in vivo [4],329 µg·h/mL
same,Kp,in vivo [4]; AUCLes/AUCplasma,1.07
same,Kp,in vivo [4]; AUCUL/AUCplasma,0.72
same,Kp,in vivo [4]; AUCWL/AUCplasma,0.93
same,Cmax,in vivo [4]; [13],94700 ng/g
same,Cmax,in vivo [4]; [14],87400 ng/mL
same,Cmax,in vivo [4]; [15],66200 ng/g
same,Cmax,in vivo [4]; [16],76500 ng/g
same,half-life,in vivo [4]; [17],2.88 h
same,half-life,in vivo [4]; [18],2.6 h
same,half-life,in vivo [4]; [15],3.01 h
same,half-life,in vivo [4]; [16],2.82 h
same,Tmax,in vivo [4]; [17],1 h
same,Tmax,in vivo [4]; [14],0.75 h
same,Tmax,in vivo [4]; [15],1 h
same,Tmax,in vivo [4]; [16],1 h
same,Tmax,in vivo [5],0.5 to 1 h
same,change in pulmonary CFU,M. tuberculosis Erdman [6]; [11],significant decrease in pulmonary CFU
same,change in pulmonary CFU,M. tuberculosis Erdman [6]; [12],larger decrease in CFU
same,AUC(0-t),in vivo [7],346 µg·h/mL
same,Kp,in vivo [7]; AUCLes/AUCplasma,1.33
same,Kp,in vivo [7]; AUCUL/AUCplasma,0.76
same,Kp,in vivo [7]; AUCWL/AUCplasma,0.86
same,Cmax,in vivo [7]; [19],146000 ng/g
same,Cmax,in vivo [7]; [14],161000 ng/mL
same,Cmax,in vivo [7]; [15],93600 ng/g
same,Cmax,in vivo [7]; [16],123000 ng/g
same,half-life,in vivo [7]; [20],0.96 h
same,half-life,in vivo [7]; [18],1.05 h
same,half-life,in vivo [7]; [15],0.75 h
same,half-life,in vivo [7]; [16],1.02 h
same,Tmax,in vivo [7]; [20],0.5 h
same,Tmax,in vivo [7]; [14],0.5 h
same,Tmax,in vivo [7]; [15],0.5 h
same,Tmax,in vivo [7]; [16],0.5 h
same,AUC8h,[8]; lesion (type III),459.4 µg·h/g
same,AUC8h,[8]; uninvolved lung,262.8 µg·h/g
same,AUC8h,[8]; whole lung,298.6 µg·h/g
"O=C(O)c1cnccn1 [POA, pyrazinoic acid]",accumulation within THP-1 cells,THP-1 cells,accumulated to a very low degree
same,AUC8h,[2]; lesion (type I),75.1 µg·h/g
same,AUC8h,[2]; uninvolved lung,30.4 µg·h/g
same,AUC8h,[2]; whole lung,43.9 µg·h/g
same,AUC(0-t),in vivo [4],58.7 µg·h/mL
same,Kp,"in vivo [4]; AUCLes/AUCplasma, lesion (type I), single 150 mg/kg oral dose of PZA",1.28
same,Kp,in vivo [4]; [21],0.52
same,Kp,in vivo [4]; [22],0.75
same,Cmax,in vivo [4]; [13],12500 ng/g
same,Cmax,in vivo [4]; [14],14200 ng/mL
same,Cmax,in vivo [4]; [15],8300 ng/g
same,Cmax,in vivo [4]; [16],9000 ng/g
same,half-life,in vivo [4]; [17],12.1 h
same,half-life,in vivo [4]; [18],2.4 h
same,half-life,in vivo [4]; [15],3.9 h
same,half-life,in vivo [4]; [16],5.13 h
same,Tmax,in vivo [4]; [17],1 h
same,Tmax,in vivo [4]; [14],0.75 h
same,Tmax,in vivo [4]; [15],1 h
same,Tmax,in vivo [4]; [16],1 h
same,Tmax,in vivo [5],0.5 to 1 h
same,AUC(0-t),in vivo [7],127 µg·h/mL
same,Kp,"in vivo [7]; AUCLes/AUCplasma, lesion (type III), single 150 mg/kg oral dose of PZA",0.78
same,Kp,in vivo [7]; [21],0.31
same,Kp,in vivo [7]; [22],0.42
same,Cmax,in vivo [7]; [19],25000 ng/g
same,Cmax,in vivo [7]; [14],42500 ng/mL
same,Cmax,in vivo [7]; [15],10300 ng/g
same,Cmax,in vivo [7]; [16],14700 ng/g
same,half-life,in vivo [7]; [20],0.83 h
same,half-life,in vivo [7]; [18],1.24 h
same,half-life,in vivo [7]; [15],0.24 h
same,half-life,in vivo [7]; [16],0.24 h
same,Tmax,in vivo [7]; [20],1 h
same,Tmax,in vivo [7]; [14],0.5 h
same,Tmax,in vivo [7]; [15],0.5 h
same,Tmax,in vivo [7]; [16],0.5 h
same,AUC8h,[8]; lesion (type III),99.5 µg·h/g
same,AUC8h,[8]; uninvolved lung,39.0 µg·h/g
same,AUC8h,[8]; whole lung,53.7 µg·h/g
"CNCCC(O)(c1cccc2ccccc12)C(c1ccccc1)c1cc2cc(Br)ccc2nc1OC (centres unmarked) [M2, N-desmethyl-BDQ]",MIC relative to BDQ,[1],approximately five times higher than that of BDQ
same,tmax by MALDI-MSI,[9],24 h
same,concentration in dissected caseum of type I granulomas (LC/MS/MS),"[2]; 8 h following a single 25 mg/kg dose of BDQ, preliminary",587.5 ng/g
same,Cmax,"[2]; lesion (caseous necrotic granuloma, type I), single 25 mg/kg oral dose of BDQ",26.8 µg/g
same,AUC168h,[2]; [23],2848 µg·h/g
same,Tmax,[2]; [23],24 h
same,t1/2,[2]; [23],98.6 h
same,AUC168h,[2]; [24],69.3 µg·h/mL
same,Cmax,[2]; [24],700 ng/mL
same,Tmax,[2]; [24],24 h
same,plasma exposure (AUC168h) as printed in the discussion,[2]; [24],69.3 µg·h/g
same,t1/2,"[2]; plasma, single 25 mg/kg oral dose of BDQ, 72–168 h terminal",55.9 h
same,AUC168h,[2]; [25],4895 µg·h/g
same,Cmax,[2]; [25],46.9 µg/g
same,Tmax,[2]; [25],24 h
same,t1/2,[2]; [25],89.4 h
same,AUC168h,[2]; [26],5254 µg·h/g
same,Cmax,[2]; [26],45.4 µg/g
same,Tmax,[2]; [26],24 h
same,t1/2,[2]; [26],134.7 h
same,protein bound,[10],more than 99%
same,Cmax,"[8]; lesion (cellular non-necrotizing, type III)",82.7 µg/g
same,AUC168h,[8]; lesion (type III),7619 µg·h/g
same,Tmax,[8]; lesion (type III),24 h
same,t1/2,[8]; lesion (type III),90.7 h
same,AUC168h,[8]; plasma,57.3 µg·h/mL
same,Cmax,[8]; plasma,760 ng/mL
same,Tmax,[8]; plasma,8 h
same,t1/2,"[8]; plasma, 72–168 h terminal",59.8 h
same,AUC168h,[8]; uninvolved lung,8825 µg·h/g
same,Cmax,[8]; uninvolved lung,111.8 µg/g
same,Tmax,[8]; uninvolved lung,24 h
same,t1/2,[8]; uninvolved lung,69.7 h
same,AUC168h,[8]; whole lung,7207 µg·h/g
same,Cmax,[8]; whole lung,69.5 µg/g
same,Tmax,[8]; whole lung,24 h
same,t1/2,[8]; whole lung,90.6 h
